Source: ChEMBL document CHEMBL1201862, “PubChem BioAssay data set” (2004)
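Values below derive from 48-hour exposures of cells grown in 96-well plates, with endpoints linearly interpolated between the two concentrations bracketing the appropriate inhibition level. At the GI50, growth is halved.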 The source made the active and inactive calls. Rule as the data show it: active = GI50 up to about 1.1 µM and inactive = higher.

Columns and labels:
Assay in all cases: inhibition of tumour cell growth, NCI panel, 48 h
[1] = tested on: UO-31
[2] = tested on: U-251
[3] = tested on: A498
[4] = tested on: OVCAR-5
[5] = tested on: NCI-H522
[6] = tested on: SK-MEL-5
[7] = tested on: HOP-92
[8] = tested on: HCT-116
[9] = tested on: K562
[10] = tested on: MDA-MB-231
[11] = tested on: SK-OV-3
[12] = tested on: SW-620
[13] = tested on: M14
[14] = tested on: Malme-3M
[15] = tested on: KM12
[16] = tested on: NCI-H226
[17] = tested on: UACC-257
[18] = tested on: SNB-75
[19] = tested on: PC-3
[20] = tested on: SR
[21] = tested on: EKVX
[22] = tested on: RXF 393
[23] = tested on: T47D
[24] = tested on: 786-0
[25] = tested on: SK-MEL-2
[26] = tested on: HT-29
[27] = tested on: OVCAR-3
[28] = tested on: TK-10
[29] = tested on: SK-MEL-28
[30] = tested on: NCI-H460
[31] = tested on: SF-295
[32] = tested on: SN12C
[33] = tested on: UACC-62
[34] = tested on: COLO 205
[35] = tested on: RPMI-8226
[36] = tested on: HCT-15
[37] = tested on: BT-549
[38] = tested on: MDA-N
[39] = tested on: ACHN
[40] = tested on: IGROV-1
[41] = tested on: Hs-578T
[42] = tested on: LOX IMVI
[43] = tested on: HL-60
[44] = tested on: MOLT-4
[45] = tested on: HOP-62
[46] = tested on: SNB-19
[47] = tested on: OVCAR-8
[48] = tested on: OVCAR-4
[49] = tested on: HCC 2998
[50] = tested on: A549
[51] = tested on: MCF7
[52] = tested on: SF-268
[53] = tested on: MDA-MB-435
[54] = tested on: NCI-H23
[55] = tested on: SF-539
[56] = tested on: CAKI-1
[57] = tested on: NCI/ADR-RES
[58] = tested on: CCRF-CEM
[59] = tested on: DU-145

## O=C1c2cc([N+](=O)[O-])sc2C(=O)c2ccsc21
[1]
  GI50: 1200 nM (inactive)
[2]
  GI50: 203 nM (active)
[3]
  GI50: 2140 nM (inactive)
[4]
  GI50: 1690 nM (inactive)
[5]
  GI50: 195 nM (active)
[6]
  GI50: 170 nM (active)
[7]
  GI50: 201 nM (active)
[8]
  GI50: 293 nM (active)
[9]
  GI50: 21.6 nM (active)
[10]
  GI50: 266 nM (active)
[11]
  GI50: 1580 nM (inactive)
[12]
  GI50: 245 nM (active)
[13]
  GI50: 258 nM (active)
[14]
  GI50: 164 nM (active)
[15]
  GI50: 407 nM (active)
[16]
  GI50: 1360 nM (inactive)
[17]
  GI50: 242 nM (active)
[18]
  GI50: 1400 nM (inactive)
[19]
  GI50: 532 nM (active)
[20]
  GI50: < 12.9 nM (active)
[21]
  GI50: 1080 nM (active)
[22]
  GI50: 486 nM (active)
[23]
  GI50: 478 nM (active)
[24]
  GI50: 449 nM (active)
[25]
  GI50: 1060 nM (active)
[26]
  GI50: 665 nM (active)
[27]
  GI50: 39.2 nM (active)
[28]
  GI50: 774 nM (active)
[29]
  GI50: 283 nM (active)
[30]
  GI50: 306 nM (active)
[31]
  GI50: 354 nM (active)
[32]
  GI50: 327 nM (active)
[33]
  GI50: 204 nM (active)
[34]
  GI50: 525 nM (active)
[35]
  GI50: 206 nM (active)
[36]
  GI50: 284 nM
[37]
  GI50: 438 nM (active)
[38]
  GI50: 191 nM (active)
[39]
  GI50: 281 nM (active)
[40]
  GI50: 413 nM (active)
[41]
  GI50: 618 nM (active)
[42]
  GI50: 68.7 nM (active)
[43]
  GI50: < 10 nM (active)
[44]
  GI50: 215 nM (active)
[45]
  GI50: 227 nM (active)
[46]
  GI50: 1890 nM (inactive)
[47]
  GI50: 465 nM (active)
[48]
  GI50: 480 nM (active)
[49]
  GI50: 520 nM (active)
[50]
  GI50: 1830 nM (inactive)
[51]
  GI50: 213 nM (active)
[52]
  GI50: 361 nM (active)
[53]
  GI50: 177 nM (active)
[54]
  GI50: 352 nM (active)
[55]
  GI50: 365 nM (active)
[56]
  GI50: 1240 nM (inactive)
[57]
  GI50: 824 nM (active)
[58]
  GI50: 75 nM (active)
[59]
  GI50: 273 nM (active)

## N#CC1N(C(=O)c2ccc(F)cc2)c2ccccc2N1C(=O)c1ccc(F)cc1
[1]
  GI50: 37700 nM (inactive)
[2]
  GI50: 74500 nM (inactive)
[3]
  GI50: > 100000 nM (inactive)
[4]
  GI50: > 100000 nM (inactive)
[5]
  GI50: 34400 nM (inactive)
[6]
  GI50: 23900 nM (inactive)
[7]
  GI50: 18500 nM (inactive)
[8]
  GI50: 42300 nM (inactive)
[9]
  GI50: 28200 nM (inactive)
[10]
  GI50: 46700 nM (inactive)
[11]
  GI50: > 100000 nM (inactive)
[12]
  GI50: 47900 nM (inactive)
[13]
  GI50: 43800 nM (inactive)
[14]
  GI50: 68900 nM (inactive)
[15]
  GI50: 91600 nM (inactive)
[16]
  GI50: 31100 nM (inactive)
[17]
  GI50: 67600 nM (inactive)
[18]
  GI50: 30700 nM (inactive)
[19]
  GI50: 49100 nM (inactive)
[20]
  GI50: 70300 nM (inactive)
[21]
  GI50: 44400 nM (inactive)
[22]
  GI50: 71600 nM (inactive)
[23]
  GI50: 27200 nM (inactive)
[24]
  GI50: 74500 nM (inactive)
[25]
  GI50: > 100000 nM (inactive)
[26]
  GI50: 33000 nM (inactive)
[27]
  GI50: 19900 nM (inactive)
[28]
  GI50: 50900 nM (inactive)
[29]
  GI50: 43900 nM (inactive)
[30]
  GI50: 38200 nM (inactive)
[31]
  GI50: > 100000 nM (inactive)
[32]
  GI50: 77800 nM (inactive)
[33]
  GI50: 37600 nM (inactive)
[34]
  GI50: 21800 nM (inactive)
[35]
  GI50: 23700 nM (inactive)
[36]
  GI50: 31300 nM
[37]
  GI50: 24900 nM (inactive)
[38]
  GI50: 48500 nM (inactive)
[39]
  GI50: 38500 nM (inactive)
[40]
  GI50: 32400 nM (inactive)
[41]
  GI50: 68100 nM (inactive)
[42]
  GI50: 29000 nM (inactive)
[43]
  GI50: 40300 nM (inactive)
[44]
  GI50: 17300 nM (inactive)
[45]
  GI50: > 100000 nM (inactive)
[46]
  GI50: > 100000 nM (inactive)
[47]
  GI50: 48100 nM (inactive)
[48]
  GI50: 35700 nM (inactive)
[49]
  GI50: 39700 nM (inactive)
[50]
  GI50: > 100000 nM (inactive)
[51]
  GI50: 33000 nM (inactive)
[52]
  GI50: > 100000 nM (inactive)
[53]
  GI50: 46100 nM (inactive)
[54]
  GI50: 50400 nM (inactive)
[55]
  GI50: 62700 nM (inactive)
[56]
  GI50: 62800 nM (inactive)
[57]
  GI50: 26700 nM (inactive)
[58]
  GI50: 28000 nM (inactive)
[59]
  GI50: 32900 nM (inactive)

## CSCCC(N)C(=O)NCCNc1ccc(NCCNC(=O)C(N)CCSC)c2c1C(=O)c1ccccc1C2=O (configuration not stated)
[1]
  GI50: 1410 nM (inactive)
[2]
  GI50: 600 nM (active)
[3]
  GI50: 1720 nM (inactive)
[4]
  GI50: 1990 nM (inactive)
[5]
  GI50: 199 nM (active)
[6]
  GI50: 3480 nM (inactive)
[7]
  GI50: 1100 nM (active)
[8]
  GI50: 424 nM (active)
[9]
  GI50: 1420 nM (inactive)
[10]
  GI50: 1160 nM (inactive)
[11]
  GI50: 2620 nM (inactive)
[12]
  GI50: 1000 nM (active)
[13]
  GI50: 3380 nM (inactive)
[14]
  GI50: 1890 nM (inactive)
[15]
  GI50: 1270 nM (inactive)
[16]
  GI50: 1080 nM (active)
[17]
  GI50: 3250 nM (inactive)
[18]
  GI50: 1570 nM (inactive)
[19]
  GI50: 1840 nM (inactive)
[20]
  GI50: 197 nM (active)
[21]
  GI50: 2460 nM (inactive)
[22]
  GI50: 1910 nM (inactive)
[23]
  GI50: 2500 nM (inactive)
[24]
  GI50: 308 nM (active)
[25]
  GI50: 3410 nM (inactive)
[26]
  GI50: 535 nM (active)
[27]
  GI50: 3030 nM (inactive)
[28]
  GI50: 2090 nM (inactive)
[29]
  GI50: 1750 nM (inactive)
[30]
  GI50: 351 nM (active)
[31]
  GI50: 1570 nM (inactive)
[32]
  GI50: 374 nM (active)
[33]
  GI50: 1230 nM (inactive)
[34]
  GI50: 1160 nM (inactive)
[35]
  GI50: 1350 nM (inactive)
[36]
  GI50: 1220 nM
[37]
  GI50: 1480 nM (inactive)
[38]
  GI50: 1690 nM (inactive)
[39]
  GI50: 456 nM (active)
[40]
  GI50: 2120 nM (inactive)
[41]
  GI50: 1020 nM (active)
[42]
  GI50: 624 nM (active)
[43]
  GI50: 746 nM (active)
[44]
  GI50: 123 nM (active)
[45]
  GI50: 783 nM (active)
[46]
  GI50: 927 nM (active)
[47]
  GI50: 441 nM (active)
[48]
  GI50: 1670 nM (inactive)
[49]
  GI50: 716 nM (active)
[50]
  GI50: 579 nM (active)
[51]
  GI50: 409 nM (active)
[52]
  GI50: 659 nM (active)
[53]
  GI50: 1860 nM (inactive)
[54]
  GI50: 1050 nM (active)
[55]
  GI50: 973 nM (active)
[56]
  GI50: 1030 nM (active)
[57]
  GI50: 2210 nM (inactive)
[58]
  GI50: 528 nM (active)
[59]
  GI50: 798 nM (active)
